Test results as given in US5185338A, “Medicament for treating cerebral insufficiency diseases, novel 2-(1-piperazinyl)-4-phenylcycloalkanopyrimidine derivatives, and process for the production thereof” (Dainippon Pharmaceutical Co., Ltd., priority 1989, dated 1993).
Read-outs that look alike come from different tables or passages of the source.

Experiments:
[1] = Chem. Pharm. Bull., 31, 2254-2261 (1983); cited from earlier work
[2] = U.S. Pat. No. 3,915,976; U.S. Pat. No. 3,305,553; cited from earlier work
[3] = test system: cycloheximide-induced amnesia of passive avoidance response; experiment: Improving effect on cycloheximide-induced amnesia of passive avoidance response; assay type: in vivo, mice (Std-ddY strain); details: cycloheximide 60 mg/kg s.c., retention trial at 24 hours, non-dosed animals=100%
Excerpt: Improving effect on cycloheximide-induced amnesia of passive avoidance response:
Anti-amnesic effect of the test compounds was examined using mice given cycloheximide which is a known amnesia-inducing agent.
A group of 15-20 male mice (Std-ddY strain, 27-33 g) was subjected to training and retention trials for a passive avoidance task in a step-down apparatus (30×30×50 cm) with a grid floor and a wooden platform (4×4×4 cm) in a center of the floor. In the training trial, each mouse was first placed on the platform, and when the mouse stepped down on the grid floor, an electric shock (1 Hz, 0.5 sec, 60 VDC) was delivered to the feet for 15 seconds. Immediately after the training trial, cycloheximide (60 mg/kg, s.c.) and a test compound (i.p.) were administered. The retention trial was carried out 24 hours thereafter, and the time from placing again each mouse on the platform until stepping down on the grid floor (step-down latency) was measured. The step-down latency in the retention trial was markedly shortened by treatment of cycloheximide (amnesia). The effect of test compounds was assessed by % improvement (complete improvement to the latency level of non-dosed animals=100%).

[4] = test system: scopolamine-induced deficit of spontaneous alternation behavior; experiment: Improving effect on scopolamine-induced deficit of spontaneous alternation behavior (T-maze); assay type: in vivo, mice (Std-ddY strain); details: scopolamine hydrobromide 1 mg/kg, non-dosed mice=100%
Excerpt: Improving effect on scopolamine-induced deficit of spontaneous alternation behavior:
A group of 15-25 male mice (Std-ddY strain, 22-28 g) was used for evaluating effect of the test compounds on scopolamine-induced deficit of spontaneous alternation in a T-maze, which is a known animal model of memory impairment due to hypofunction of the cholinergic nervous system. The T-maze used consists of a stem and two arms which are 25 cm long, 5 cm wide and 10 cm high. The first 10 cm of the stem and last 10 cm of each arm are divided by sliding doors into start and goal boxes.
A test compound and scopolamine hydrobromide (1 mg/kg) were intraperitoneally administered to each mouse, and after 30 minutes a test of spontaneous alternation task in the T-maze was continuously repeated for 8 trials. Commonly, naive mice alternate each (right and left) goal box in turn, but scopolamine-treated animals tend to enter the same goal box repeatedly. The effect of the test compounds was expressed as % improvement (complete improvement to the alternation level of non-dosed mice=100%).

[5] = target: T1, dopamine (D2) receptor (Rattus norvegicus, UniProt P61169); experiment: Dopamine (D2) receptor binding assay, [3H] spiperone; parameters: species or system rats; details: rat brain crude synaptosome fractions
T1 construct: Crude synaptosome fractions prepared from some brain regions in rats were used as the receptor sources; from tissue
T1 sequence (P61169 whole entry): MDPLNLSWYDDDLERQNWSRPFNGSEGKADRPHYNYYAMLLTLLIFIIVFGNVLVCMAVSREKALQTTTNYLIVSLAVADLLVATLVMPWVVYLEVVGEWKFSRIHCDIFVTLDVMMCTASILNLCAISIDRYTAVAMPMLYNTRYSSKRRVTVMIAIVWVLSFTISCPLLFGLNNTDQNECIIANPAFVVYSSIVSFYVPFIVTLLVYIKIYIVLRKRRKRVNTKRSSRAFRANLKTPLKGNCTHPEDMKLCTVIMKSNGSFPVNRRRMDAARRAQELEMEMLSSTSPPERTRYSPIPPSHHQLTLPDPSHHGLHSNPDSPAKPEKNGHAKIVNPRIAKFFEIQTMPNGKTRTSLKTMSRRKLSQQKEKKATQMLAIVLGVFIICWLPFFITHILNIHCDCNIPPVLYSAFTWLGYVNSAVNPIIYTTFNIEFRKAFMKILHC
Protocol: (§1) Effect of binding to dopamine (D2), serotonin (S1, S2) and adrenaline (α1) receptor (in vitro receptor binding assay):
(§2) Dopamine (D2), serotonin (S1, S2) and adrenaline (α1) receptor binding assays were carried out according to the methods of I. Creese et al. [Eur. J. Pharmacol., 46, 377 (1977)], S. J. Peroutka et al. [Mol. Pharmacol., 16, 687 (1979)], J. E. Leysen et al. [Mol. Pharmacol., 21, 301 (1982)], and D. C. U'Prichard et al. [Mol. Pharmacol., 13, 454 (1977)], respectively.
(§3) Crude synaptosome fractions prepared from some brain regions in rats were used as the receptor sources, and [^3 H] spiperone (D2), [^3 H] serotonin (S1), [^3 H] ketanserin (S2) and [^3 H] WB-4101 (α1) were used as the labelled ligands. The binding assay was performed by incubating aliquots of synaptosome fraction in buffer solution (final volume 1 ml) containing the receptor source and the labelled ligand in the presence of a test compound having various concentration thereof for a fixed time. The assay was terminated by rapid filtration through Whatman GF/B glass fiber filters attached to a cell-harvester (Brandel) and radioactivity on the filters was counted with a scintillation counter. Specific binding was calculated as a difference between the amount of radioactivity in the assay group and that in the control group which was separately measured likewise in the presence of an excess amount of an unlabelled ligand [spiperone (D2), serotonin (S1), methysergide (S2) and prazosin (α1)] instead of […]. The IC50 value of the test compounds (i.e. the concentration causing 50% inhibition of the labelled ligand specific binding) was determined by probit analysis.

[6] = test system: sodium nitrite-induced anemic hypoxia; experiment: Protective effect on sodium nitrite-induced anemic hypoxia; assay type: in vivo, mice (Std-ddY strain); details: 10 mg/kg i.p., 2 hours before sodium nitrite 225 mg/kg i.p.; vs sodium nitrite alone
Excerpt: Protective effect on sodium nitrite-induced anemic hypoxia:
It is known that sodium nitrite (NaNO2) induces anemic hypoxia by converting hemoglobin to metohemoglobin, resulting in a severe impairment of brain function and ultimately in death. Based on the above knowledge, prolongation of survival time after sodium nitrite treatment was used as an index for antihypoxic effect of the test compounds.
A group of 20 male mice (Std-ddY strain, 25-30 g) was intraperitoneally given a test compound (10 mg/kg), and 2 hours after the treatment with the test compound, a lethal amount (225 mg/kg) of sodium nitrite was intraperitoneally administered, and then, the survival time of each mouse was measured. The effect of the test compounds was assessed by the prolongation rate (%) of survival time compared with that of the animals treated with sodium nitrite alone.

[7] = test system: scopolamine-induced hypermotility; experiment: Antagonistic effect on scopolamine-induced hypermotility; assay type: in vivo, mice (Std-ddY strain); details: Mus musculus, po, read-out: Inhibitory ratio (% antagonism of scopolamine-induced hypermotility)
Protocol: Antagonistic effect on scopolamine-induced hypermotility:
A test compound was orally administered to each mouse, and 90 minutes after the administration, each one test animal was placed within a test cage (25×35×30 cm). After 30 minutes, scopolamine hydrobromide (1 mg/kg) was intraperitoneally administered to the mice and then the motility was measured with Animex activity meter for 30 minutes. The effect of test compounds was expressed as % antagonism (complete antagonism to the motility level of non-dosed animals=100%).

[8] = target: serotonin (S1) receptor; experiment: Serotonin (S1) receptor binding assay, [3H] serotonin; parameters: species or system rats; details: rat brain crude synaptosome fractions
Protocol: as §1, §2, §3

[9] = test system: brain serotonin metabolite, 5-hydroxyindole-3-acetic acid (5-HIAA); experiment: Increasing effect on concentration of brain serotonin metabolite (5-HIAA); assay type: in vivo, mice (Std-ddY strain); details: Mus musculus, 2 h, two hours after treatment, 5-HIAA level of non-dosed animals=100%
Excerpt: Increasing effect on concentration of brain serotonin metabolite:
A group of 5 male mice (Std-ddY strain, 25-30 g) was used for examining effect of the test compounds on concentration of a brain serotonin metabolite, 5-hydroxyindole-3-acetic acid (5-HIAA).
Mice were killed by decapitation two hours after the treatment with the test compounds. Brains were quickly taken out, homogenized in 1N formic acid-acetone solution, and centrifuged in a refrigerated ultracentrifuge. The supernatant was evaporated by blowing with N2 gas, and then, the residue was again dissolved in 0.01N acetic acid, and served for determining 5-HIAA concentration by high performance liquid chromatography with electrochemical detection. The effect of the test compounds on 5-HIAA concentration was shown as % of control (5-HIAA level of non-dosed animals=100%).

[10] = target: adrenaline (α1) receptor; experiment: Adrenaline (α1) receptor binding assay, [3H] WB-4101; parameters: species or system rats; details: rat brain crude synaptosome fractions
Protocol: as §1, §2, §3

[11] = target: T2, serotonin (S2) receptor (Rattus norvegicus, UniProt P14842); experiment: Serotonin (S2) receptor binding assay, [3H] ketanserin; parameters: species or system rats; details: rat brain crude synaptosome fractions
T2 construct: Crude synaptosome fractions prepared from some brain regions in rats were used as the receptor sources; from tissue
T2 sequence (P14842 whole entry): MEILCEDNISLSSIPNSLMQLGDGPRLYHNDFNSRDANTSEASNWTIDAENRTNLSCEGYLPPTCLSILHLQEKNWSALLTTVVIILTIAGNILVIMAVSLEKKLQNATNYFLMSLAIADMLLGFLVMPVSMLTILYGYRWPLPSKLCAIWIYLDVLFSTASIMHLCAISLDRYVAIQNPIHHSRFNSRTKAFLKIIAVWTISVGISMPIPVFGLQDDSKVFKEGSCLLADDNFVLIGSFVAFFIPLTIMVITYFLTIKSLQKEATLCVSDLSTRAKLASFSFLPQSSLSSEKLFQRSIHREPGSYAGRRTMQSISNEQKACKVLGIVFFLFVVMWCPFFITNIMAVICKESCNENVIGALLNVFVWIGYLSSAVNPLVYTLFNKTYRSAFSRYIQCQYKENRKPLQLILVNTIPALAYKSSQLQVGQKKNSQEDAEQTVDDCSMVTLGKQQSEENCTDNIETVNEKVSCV
Protocol: as §1, §2, §3

[12] = test system: mice; experiment: Acute toxicity; assay type: in vivo, mice (Std-ddY strain); details: 200 mg/kg orally; 7 days observation; 5 male mice
Protocol: Experiment 8 Acute toxicity
A group of 5 male mice (Std-ddY strain, 25-30 g) was used. The test compound (200 mg/kg) was orally administered to the test animal in the form of a 0.5% tragacanth solution or suspension, and for 7 days after the administration of the test compound, the lethality of animals was observed.

[13] = test system: reserpine-induced hypothermia; experiment: Anti-reserpine effect (reserpine-induced hypothermia); assay type: in vivo, mice (Std-ddY strain); details: 100 mg/kg orally; reserpine 5 mg/kg s.c.; rectal temperature at 4 hours; complete inhibition=100%
Protocol: A group of 5 male mice (Std-ddY strain, 22-25 g) was used for examining the antagonistic effect of the test compounds on reserpine-induced hypothermia, which is known as a screening method for the antidepressant drug.
Reserpine (5 mg/kg) was subcutaneously administered to the mice and further a test compound was orally administered thereto. Four hours after the administration, rectal temperature of the mice was measured. The effect of the test compounds was estimated by % inhibition (complete inhibition to the hypothermia by reserpine in non-dosed animals=100%).

[14] = 30 mg/kg, orally, scopolamine hydrobromide 1 mg/kg i.p., complete antagonism to motility level of non-dosed animals=100%

SMILES | Improvement of cycloheximide-induced amnesia (step-down latency) ([3]; 0.5 mg/kg i.p.) | IC50 [5] | IC50 [8] | response vs control in vivo at 100 mg/kg [9] | IC50 [10] | IC50 [11] | Lethality of animals [12] | Improvement of scopolamine-induced deficit of spontaneous alternation ([4]; 2.0 mg/kg i.p.) | also measured
c1ccc(-c2nc(N3CCNCC3)nc3c2CCCC3)cc1 [4-phenyl-2-(1-piperazinyl)-5,6,7,8-tetrahydroquinazoline] | – | – | – | – | – | – | – | – | Hypoglycemic activity [1]: weak hypoglycemic activity
c1ccc(CN2CCN(c3nc4c(c(-c5ccccc5)n3)CCCC4)CC2)cc1 [4-phenyl-2-(4-benzyl-1-piperazinyl)-5,6,7,8-tetrahydroquinazoline] | – | – | – | – | – | – | – | – | Hypoglycemic activity [1]: weak hypoglycemic activity
CN1CCN(c2nc3c(c(-c4ccccc4)n2)CCCCC3)CC1 [6,7,8,9-tetrahydro-2-(4-methyl-1-piperazinyl)-4-phenyl-5H-cyclohepta[d]pyrimidine] | – | – | – | – | – | – | – | – | Anti-inflammatory activity [2]: have anti-inflammatory activity
CN1CCN(c2nc3c(c(-c4ccccc4)n2)CCC3)CC1 [6,7-dihydro-2-(4-methyl-1-piperazinyl)-4-phenyl-5H-cyclopenta[d]pyrimidine] | – | – | – | – | – | – | – | – | Anti-inflammatory activity [2]: have anti-inflammatory activity
Fc1ccc(-c2nc(N3CCNCC3)nc3c2CCC3)cc1 [Ex. 1, 2-(1-piperazinyl)-4-(4-fluorophenyl)-6,7-dihydro-5H-cyclopentapyrimidine] | 33.8% | 920 nM | 750 nM | 150% | 1100 nM | 29 nM | no animal was died | – | Improvement of cycloheximide-induced amnesia (step-down latency) ([3]; 2.0 mg/kg i.p.): 65.8%; Improvement of scopolamine-induced deficit of spontaneous alternation ([4]; 0.02 mg/kg i.p.): 47.8%; Improvement of scopolamine-induced deficit of spontaneous alternation ([4]; 0.5 mg/kg i.p.): 51.9%; Prolongation rate of survival time [6]: 36.7%; inhibition in vivo at 3 mg/kg [7]: 60.7%
Fc1ccc(-c2nc(N3CCNCC3)nc3c2CCCCC3)cc1 [Ex. 2, 2-(1-piperazinyl)-4-(4-fluorophenyl)-6,7,8,9-tetrahydro-5H-cycloheptapyrimidine] | 93.7% | 750 nM | 3000 nM | 135% | 3400 nM | 9.6 nM | no animal was died | 39.1% | Improvement of cycloheximide-induced amnesia (step-down latency) ([3]; 2.0 mg/kg i.p.): 72.8%; inhibition in vivo at 30 mg/kg [7]: 69.2%
c1ccc(-c2nc(N3CCNCC3)nc3c2CCCCC3)cc1 [Ex. 7, 2-(1-Piperazinyl)-4-phenyl-6,7,8,9-tetrahydro-5H-cycloheptapyrimidine] | 70.4% | 2000 nM | – | – | – | 38 nM | – | – | Improvement of scopolamine-induced deficit of spontaneous alternation ([4]; 10.0 mg/kg i.p.): 44.0%; inhibition in vivo at 30 mg/kg [7, 14]: 78.2%
c1ccc(-c2nc(N3CCNCC3)nc3c2CCCCCC3)cc1 [Ex. 9, 2-(1-Piperazinyl)-4-phenyl-5,6,7,8,9,10-hexahydrocyclooctapyrimidine] | 85.8% | – | – | – | – | – | no animal was died | 36.7% | inhibition in vivo at 10 mg/kg ([7]; 10 mg/kg, orally, scopolamine hydrobromide 1 mg/kg i.p., complete antagonism to motility level of non-dosed animals=100%): 60.4%
Fc1ccc(-c2nc(N3CCNCC3)nc3c2CCCCCC3)cc1 [Ex. 10, 2-(1-Piperazinyl)-4-(4-fluorophenyl)-5,6,7,8,9,10-hexahydrocyclooctapyrimidine] | 67.1% | 130 nM | 1300 nM | – | 1200 nM | 19 nM | – | 63.0% | inhibition in vivo at 3 mg/kg [7]: 50.6%
CN1CCN(c2nc3c(c(-c4ccc(F)cc4)n2)CCCC3)CC1 [Ex. 28] | – | 350 nM | – | 156% | – | 87 nM | – | – | Inhibitory ratio (% inhibition of reserpine-induced hypothermia) [13]: 37%; inhibition in vivo at 30 mg/kg [7, 14]: 96.4%
